Converted amounts (≈) assume the structure as drawn.
Columns and labels:
Type in all cases: functional
[1] = tested on: Pseudomonas aeruginosa; experiment: Antibacterial activity against Pseudomonas aeruginosa NCIM 2036 measured after 8 hrs by spectrophotometric method; conditions: NCIM 2036, 8 h
[2] = tested on: Staphylococcus aureus; experiment: Antibacterial activity against Staphylococcus aureus NCIM 2079 measured after 12 hrs by spectrophotometric method; conditions: NCIM 2079, 12 h
[3] = tested on: Escherichia coli; experiment: Antibacterial activity against Escherichia coli NCIM 2688 measured after 8 hrs by spectrophotometric method; conditions: NCIM 2688, 8 h
[4] = tested on: Bacillus subtilis; experiment: Antibacterial activity against Bacillus subtilis NCIM 2010 measured after 12 hrs by spectrophotometric method; conditions: NCIM 2010, 12 h
[5] = tested on: Mycobacterium tuberculosis; experiment: Antitubercular activity against dormant stage Mycobacterium tuberculosis H37Ra measured after 12 days by XTT assay; conditions: 288 h
[6] = tested on: Escherichia coli; experiment: Antibacterial activity against Escherichia coli NCIM 2688 at 30 ug/ml measured after 8 hrs by spectrophotometric method; conditions: NCIM 2688, 8 h
[7] = tested on: Escherichia coli; experiment: Antibacterial activity against Escherichia coli NCIM 2688 at 10 ug/ml measured after 8 hrs by spectrophotometric method; conditions: NCIM 2688, 8 h
[8] = tested on: Escherichia coli; experiment: Antibacterial activity against Escherichia coli NCIM 2688 at 3 ug/ml measured after 8 hrs by spectrophotometric method; conditions: NCIM 2688, 8 h
[9] = tested on: Pseudomonas aeruginosa; experiment: Antibacterial activity against Pseudomonas aeruginosa NCIM 2036 at 30 ug/ml measured after 8 hrs by spectrophotometric method; conditions: NCIM 2036, 8 h
[10] = tested on: Pseudomonas aeruginosa; experiment: Antibacterial activity against Pseudomonas aeruginosa NCIM 2036 at 10 ug/ml measured after 8 hrs by spectrophotometric method; conditions: NCIM 2036, 8 h
[11] = tested on: Pseudomonas aeruginosa; experiment: Antibacterial activity against Pseudomonas aeruginosa NCIM 2036 at 3 ug/ml measured after 8 hrs by spectrophotometric method; conditions: NCIM 2036, 8 h
[12] = tested on: Staphylococcus aureus; experiment: Antibacterial activity against Staphylococcus aureus NCIM 2079 at 30 ug/ml measured after 12 hrs by spectrophotometric method; conditions: NCIM 2079, 12 h
[13] = tested on: Staphylococcus aureus; experiment: Antibacterial activity against Staphylococcus aureus NCIM 2079 at 10 ug/ml measured after 12 hrs by spectrophotometric method; conditions: NCIM 2079, 12 h
[14] = tested on: Staphylococcus aureus; experiment: Antibacterial activity against Staphylococcus aureus NCIM 2079 at 3 ug/ml measured after 12 hrs by spectrophotometric method; conditions: NCIM 2079, 12 h
[15] = tested on: Bacillus subtilis; experiment: Antibacterial activity against Bacillus subtilis NCIM 2010 at 30 ug/ml measured after 12 hrs by spectrophotometric method; conditions: NCIM 2010, 12 h
[16] = tested on: Bacillus subtilis; experiment: Antibacterial activity against Bacillus subtilis NCIM 2010 at 10 ug/ml measured after 12 hrs by spectrophotometric method; conditions: NCIM 2010, 12 h
[17] = tested on: Bacillus subtilis; experiment: Antibacterial activity against Bacillus subtilis NCIM 2010 at 3 ug/ml measured after 12 hrs by spectrophotometric method; conditions: NCIM 2010, 12 h
[18] = tested on: Mycobacterium tuberculosis; experiment: Antitubercular activity against dormant stage Mycobacterium tuberculosis H37Ra at 30 ug/ml measured after 12 days by XTT assay; conditions: 288 h
[19] = tested on: Mycobacterium tuberculosis; experiment: Antitubercular activity against dormant stage Mycobacterium tuberculosis H37Ra at 10 ug/ml measured after 12 days by XTT assay; conditions: 288 h
[20] = tested on: Mycobacterium tuberculosis; experiment: Antitubercular activity against dormant stage Mycobacterium tuberculosis H37Ra at 3 ug/ml measured after 12 days by XTT assay; conditions: 288 h

SMILES	IC50 [1] [µg/mL]	MIC [1] [µg/mL]	IC50 [2] [µg/mL]	MIC [2] [µg/mL]	IC50 [3] [µg/mL]	MIC [3] [µg/mL]	IC50 [4] [µg/mL]	MIC [4] [µg/mL]	IC50 [5] [µg/mL]	MIC [5] [µg/mL]	inhibition at 30 µg/mL [6] [%]	inhibition at 10 µg/mL [7] [%]	inhibition at 3 µg/mL [8] [%]	inhibition at 30 µg/mL [9] [%]	inhibition at 10 µg/mL [10] [%]	inhibition at 3 µg/mL [11] [%]	inhibition at 30 µg/mL [12] [%]	inhibition at 10 µg/mL [13] [%]	inhibition at 3 µg/mL [14] [%]	inhibition at 30 µg/mL [15] [%]	also measured
N#Cc1ccc(NC(=S)NC[C@H]2CN(c3ccc(N4CC5(COC5)C4)c(F)c3)C(=O)O2)cc1	> 100	> 100	1.03 (≈ 2.2 µM)	11.2 (≈ 24 µM)	1 (≈ 2.14 µM)	9.54 (≈ 20.4 µM)	0.86 (≈ 1.84 µM)	3.87 (≈ 8.28 µM)	> 100	> 100	95.7	93.2	78.2	50	46.6	22.1	94.3	91.6	75.6	98	inhibition at 10 µg/mL [16]: 97.6%; inhibition at 3 µg/mL [17]: 81.3%; inhibition at 30 µg/mL [18]: 34.7%; inhibition at 10 µg/mL [19]: 58.1%; inhibition at 3 µg/mL [20]: 34.5%
CC(C)(C)NC(=S)NC[C@H]1CN(c2ccc(N3CC4(COC4)C3)c(F)c2)C(=O)O1	> 100	> 100	1.45 (≈ 3.43 µM)	9.15 (≈ 21.7 µM)	1.38 (≈ 3.27 µM)	22.8 (≈ 53.9 µM)	> 100	> 100	> 100	> 100	100	84	75.7	62.7	37.5	0	98.9	90.4	82.1	97.2	inhibition at 10 µg/mL [16]: 79.3%; inhibition at 3 µg/mL [17]: 66.3%; inhibition at 30 µg/mL [18]: -6.69%; inhibition at 10 µg/mL [19]: -3.66%; inhibition at 3 µg/mL [20]: 9.56%
O=C1OC2(CCN(Cc3ccccc3)C2)CN1c1ccc(N2CCOCC2)c(F)c1 (stereo not given)	> 100	> 100	> 100	> 100	> 100	> 100	> 100	> 100	> 100	> 100	23.9	23.7	31.2	50.1	32.7	35.9	23.1	22.9	30.5	14.7	inhibition at 10 µg/mL [16]: 17.4%; inhibition at 3 µg/mL [17]: 24.5%; inhibition at 30 µg/mL [18]: 20.8%; inhibition at 10 µg/mL [19]: 7.06%; inhibition at 3 µg/mL [20]: 18.1%
O=C(NC[C@H]1CN(c2ccc(N3CC4(COC4)C3)c(F)c2)C(=O)O1)Nc1ccc(Cl)cc1	> 100	> 100	> 100	> 100	> 100	> 100	> 100	> 100	> 100	> 100	59.1	31.9	7.39	62	33.1	12.4	62.1	57.3	47.4	65	inhibition at 10 µg/mL [16]: 63.6%; inhibition at 3 µg/mL [17]: 59.6%; inhibition at 30 µg/mL [18]: 30.2%; inhibition at 10 µg/mL [19]: 25.6%; inhibition at 3 µg/mL [20]: 6.78%
CC(C)NC(=S)NC[C@H]1CN(c2ccc(N3CC4(COC4)C3)c(F)c2)C(=O)O1	1.27 (≈ 3.11 µM)	32.3 (≈ 79 µM)	> 100	> 100	> 100	> 100	0.64 (≈ 1.57 µM)	6.04 (≈ 14.8 µM)	> 100	> 100	91.3	58.9	46.7	91.4	83.8	72.6	93	75.2	58.8	99.3	inhibition at 10 µg/mL [16]: 95.1%; inhibition at 3 µg/mL [17]: 82%; inhibition at 30 µg/mL [18]: 48.8%; inhibition at 10 µg/mL [19]: 7.27%; inhibition at 3 µg/mL [20]: -11.7%

— ChEMBL document CHEMBL3865816, “Design, synthesis and biological evaluation of novel azaspiro analogs of linezolid as antibacterial and antitubercular agents” (Eur J Med Chem, 2016)
